Laboratory results as given in PubChem BioAssay (NCI).
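Values below derive from 48-hour exposures of cells grown in 96-well plates, with endpoints linearly interpolated between the two concentrations bracketing the appropriate inhibition level. Abbreviation: GI50, concentration required for 50% inhibition of growth. TGI is the concentration that stops growth completely.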

Legend:
Assay in all cases: NCI-60 cell line screen, 48 h
CAKI-1 renal = tested on: CAKI-1 renal
HT29 colon = tested on: HT29 colon
KM12 colon = tested on: KM12 colon
NCI-H23 lung = tested on: NCI-H23 lung
OVCAR-3 ovarian = tested on: OVCAR-3 ovarian
OVCAR-4 ovarian = tested on: OVCAR-4 ovarian
OVCAR-8 ovarian = tested on: OVCAR-8 ovarian
SF-268 CNS = tested on: SF-268 CNS
SK-MEL-5 melanoma = tested on: SK-MEL-5 melanoma
UACC-257 melanoma = tested on: UACC-257 melanoma

O=C(NCCCCCCCN1CCCCCCC1)C(C1CCCCC1)C1CCCCC1 showed a TGI (CAKI-1 renal) of 20.6 µM, a TGI (HT29 colon) of 11.7 µM and a TGI (KM12 colon) of 27.5 µM. It also gave a TGI (NCI-H23 lung) of 28.5 µM, a TGI (OVCAR-3 ovarian) of 18.6 µM and a TGI (OVCAR-4 ovarian) of 25.4 µM. It also gave a TGI (OVCAR-8 ovarian) of 26 µM, a TGI (SF-268 CNS) of 32.5 µM and a TGI (SK-MEL-5 melanoma) of 5.51 µM. It also gave a TGI (UACC-257 melanoma) of 4.79 µM.

In the case of CC(=O)NCCCCN(CCCNC(C)=O)C(=O)OCc1ccccc1, the TGI (CAKI-1 renal) is reported as > 100 µM, the TGI (HT29 colon) is reported as > 100 µM and the TGI (KM12 colon) is reported as > 100 µM. For the same molecule, the TGI (NCI-H23 lung) was > 100 µM, the TGI (OVCAR-3 ovarian) was > 100 µM and the TGI (OVCAR-4 ovarian) was > 100 µM. The TGI (OVCAR-8 ovarian) was > 100 µM, the TGI (SF-268 CNS) was > 100 µM and the TGI (SK-MEL-5 melanoma) was > 100 µM. The TGI (UACC-257 melanoma) was > 100 µM.

In the case of CC(C)N(C(=O)C12C3C4C1C1C2C3C41C(=O)N(C(C)C)C(C)C)C(C)C (stereo not given), the TGI (CAKI-1 renal) is reported as > 50 µM, the TGI (HT29 colon) is reported as > 50 µM and the TGI (KM12 colon) is reported as > 50 µM. The TGI (NCI-H23 lung) was > 50 µM, the TGI (OVCAR-3 ovarian) was > 50 µM and the TGI (OVCAR-4 ovarian) was > 50 µM. The TGI (OVCAR-8 ovarian) was > 50 µM, the TGI (SF-268 CNS) was > 50 µM and the TGI (SK-MEL-5 melanoma) was > 50 µM. The TGI (UACC-257 melanoma) was > 50 µM.

O=C(Nc1ccc2[nH]c(C(=O)N3CC(CCl)c4ccc([N+](=O)[O-])cc43)cc2c1)c1cc2ccccc2o1 (stereo not given) was tested, and the TGI (CAKI-1 renal) was > 1100 µM, the TGI (HT29 colon) was > 1100 µM and the TGI (KM12 colon) was > 1100 µM. The TGI (NCI-H23 lung) was > 1100 µM, the TGI (OVCAR-3 ovarian) was > 1100 µM and the TGI (OVCAR-4 ovarian) was > 1100 µM. For the same molecule, the TGI (OVCAR-8 ovarian) was > 1100 µM, the TGI (SF-268 CNS) was > 1100 µM and the TGI (SK-MEL-5 melanoma) was > 1100 µM. For the same molecule, the TGI (UACC-257 melanoma) was > 1100 µM.

CSc1c(C#N)c(S)n(-c2ccc(Cl)cc2)c(=O)c1C#N was tested, and the TGI (CAKI-1 renal) was > 100 µM, the TGI (HT29 colon) was > 100 µM and the TGI (KM12 colon) was > 100 µM. The TGI (NCI-H23 lung) was > 100 µM, the TGI (OVCAR-3 ovarian) was > 100 µM and the TGI (OVCAR-4 ovarian) was > 100 µM. For the same molecule, the TGI (OVCAR-8 ovarian) was > 100 µM, the TGI (SF-268 CNS) was > 100 µM and the TGI (SK-MEL-5 melanoma) was > 100 µM. The TGI (UACC-257 melanoma) was > 100 µM.

Work on Cc1nnc(N/N=C(/C(=O)C(C#N)c2ccc(Cl)cc2)C(C#N)c2ccc(Cl)cc2)n1N (stereo not given) yielded a TGI (CAKI-1 renal) of 43.1 µM, a TGI (HT29 colon) of 61.9 µM and a TGI (KM12 colon) of 39.8 µM. For the same molecule, the TGI (NCI-H23 lung) was 35.3 µM, the TGI (OVCAR-3 ovarian) was 48.8 µM and the TGI (OVCAR-4 ovarian) was 32.9 µM. It also gave a TGI (OVCAR-8 ovarian) of 41 µM, a TGI (SF-268 CNS) of 57.2 µM and a TGI (SK-MEL-5 melanoma) of 30.9 µM. For the same molecule, the TGI (UACC-257 melanoma) was 33.1 µM.

With c1cncc(CSc2ncnc3nc[nH]c23)c1 the TGI (CAKI-1 renal) was > 100 µM, the TGI (HT29 colon) was > 100 µM and the TGI (KM12 colon) was > 100 µM. The TGI (NCI-H23 lung) was > 100 µM, the TGI (OVCAR-3 ovarian) was > 100 µM and the TGI (OVCAR-4 ovarian) was > 100 µM. For the same molecule, the TGI (OVCAR-8 ovarian) was > 100 µM, the TGI (SF-268 CNS) was > 100 µM and the TGI (SK-MEL-5 melanoma) was > 100 µM. For the same molecule, the TGI (UACC-257 melanoma) was > 100 µM.

CCOC(=O)/C=C/C1(CCOC(C)=O)CCCCC1 was tested, and the TGI (CAKI-1 renal) was > 10 µM, the TGI (HT29 colon) was > 10 µM and the TGI (KM12 colon) was > 10 µM. For the same molecule, the TGI (NCI-H23 lung) was > 10 µM, the TGI (OVCAR-3 ovarian) was > 10 µM and the TGI (OVCAR-4 ovarian) was > 10 µM. For the same molecule, the TGI (OVCAR-8 ovarian) was > 10 µM, the TGI (SF-268 CNS) was > 10 µM and the TGI (SK-MEL-5 melanoma) was > 10 µM. The TGI (UACC-257 melanoma) was > 10 µM.

CC1SC(c2ccc(Cl)cc2)N(CCc2cccs2)C1=O (stereo not given) was tested, and the GI50 (CAKI-1 renal) was 1.15 µM, the TGI (CAKI-1 renal) was 3.42 µM and the GI50 (HT29 colon) was 1.48 µM. For the same molecule, the TGI (HT29 colon) was 3.14 µM, the GI50 (KM12 colon) was 1.52 µM and the TGI (KM12 colon) was 3.36 µM. It also gave a GI50 (NCI-H23 lung) of 1.48 µM, a TGI (NCI-H23 lung) of 3.85 µM and a GI50 (OVCAR-3 ovarian) of 1.42 µM. The TGI (OVCAR-3 ovarian) was 2.74 µM, the GI50 (OVCAR-4 ovarian) was 1.19 µM and the TGI (OVCAR-4 ovarian) was 2.44 µM. For the same molecule, the GI50 (OVCAR-8 ovarian) was 1.93 µM, the TGI (OVCAR-8 ovarian) was 4.08 µM and the GI50 (SF-268 CNS) was 1.55 µM. The TGI (SF-268 CNS) was 3.49 µM, the GI50 (SK-MEL-5 melanoma) was 1.43 µM and the TGI (SK-MEL-5 melanoma) was 2.75 µM. The GI50 (UACC-257 melanoma) was 1.99 µM and the TGI (UACC-257 melanoma) was 4.23 µM.

With CC(=O)N(CC(=O)C(=O)NNc1ccoc1)c1ccc(Cl)cc1 the TGI (CAKI-1 renal) was > 100 µM, the TGI (HT29 colon) was > 100 µM and the TGI (KM12 colon) was > 100 µM. The TGI (NCI-H23 lung) was > 100 µM, the TGI (OVCAR-3 ovarian) was > 100 µM and the TGI (OVCAR-4 ovarian) was > 100 µM. The TGI (OVCAR-8 ovarian) was > 100 µM, the TGI (SF-268 CNS) was > 100 µM and the TGI (SK-MEL-5 melanoma) was > 100 µM. The TGI (UACC-257 melanoma) was > 100 µM.
